Measured values: paper doi:10.1101/2021.10.07.463234v2 (biorxiv, 2021)
Counter-ions that a name gives are not always drawn.

Molecular target: SARS-CoV-2 Mac1 (Severe acute respiratory syndrome coronavirus 2, UniProt P0DTD1)
Assay: biochemical
Conditions: for inhibition at 100 µM: read-out: %inhibition; for %inhibition: 100 µM, inhibitor

OC[C@H]1O[C@@H](c2ccc(Cl)c(Cc3ccc(O[C@H]4CCOC4)cc3)c2)[C@H](O)[C@@H](O)[C@@H]1O [Empagliflozin (BI 10773)]
inhibition at 100 µM: 0%

CN1CC(O)C2=C/C(=N/NC(N)=O)C(=O)C=C21 (stereo not drawn) [Carbazochrome]
inhibition at 100 µM: 10.9%

O=c1ccc2ccc(OCCCCN3CCN(c4cccc5sccc45)CC3)cc2[nH]1 [Brexpiprazole]
inhibition at 100 µM: 0%

CCS(=O)(=O)N1CCN(c2ccc(Nc3ncc(C(N)=O)c(NC4CC4)n3)cc2)CC1 [Cerdulatinib (PRT062070, PRT2070)]
inhibition at 100 µM: 15.9%

CC(C)(CO)c1cc2cc(NC(=O)C3(c4ccc5c(c4)OC(F)(F)O5)CC3)c(F)cc2n1C[C@@H](O)CO [Tezacaftor(VX-661)]
inhibition at 100 µM: 16.1%

CN1CCC(=C2c3ccccc3CCc3sccc32)CC1 [Pizotifen Malate]
inhibition at 100 µM: 0%

CC1=CC(=O)c2ccccc2C1=O [Menadione]
inhibition at 100 µM: 1.18%

C[C@]1(Cn2ccnn2)[C@H](C(=O)O)N2C(=O)C[C@H]2S1(=O)=O [Tazobactam]
inhibition at 100 µM: 6.81%

c1ccc2c(c1)Nc1ccccc1S2 [Phenothiazine]
inhibition at 100 µM: 18.2%

COc1cc2nc(N3CCN(C(=O)C4CCCO4)CC3)nc(N)c2cc1OC (stereo not drawn) [Terazosin HCl Dihydrate]
%inhibition: 6.293%

OC[C@@H](O)[C@@H](O[C@@H]1O[C@H](CO)[C@H](O)[C@H](O)[C@H]1O)[C@H](O)[C@@H](O)CO [Lactitol monohydrate]
%inhibition: 1.512%

COc1ccccc1OCCNCC(O)COc1cccc2[nH]c3ccccc3c12 (stereo not drawn) [Carvedilol]
%inhibition: 23.79%

CN(C)C/C=C/C(=O)Nc1cc2c(Nc3ccc(F)c(Cl)c3)ncnc2cc1O[C@H]1CCOC1 [Afatinib (BIBW2992)]
%inhibition: 0.3349%

COc1cc(CNC(=O)CCCC/C=C/C(C)C)ccc1O [Capsaicin(Vanilloid)]
%inhibition: 5.806%

COc1ccc2cc3[n+](cc2c1OC)CCc1cc2c(cc1-3)OCO2 [Berberine Sulfate]
%inhibition: 0%

CCC(COC(=O)c1cc(OC)c(OC)c(OC)c1)(c1ccccc1)N(C)C (stereo not drawn) [Trimebutine maleate]
inhibition at 100 µM: 0%

C=CC1=C(C(=O)O)N2C(=O)[C@@H](NC(=O)/C(=N\OCC(=O)O)c3csc(N)n3)[C@H]2SC1 [Cefixime]
inhibition at 100 µM: 0%

CCCCOc1cc(C(=O)OCCN(CC)CC)ccc1N [Oxybuprocaine HCl]
inhibition at 100 µM: 8.43%

CC(=O)O[C@H]1C[C@@H]2CC[C@@H]3[C@H](CC[C@@]4(C)[C@H]3C[C@H]([N+]3(C)CCCCC3)[C@@H]4OC(C)=O)[C@@]2(C)C[C@@H]1[N+]1(C)CCCCC1 [Pancuronium dibromide]
inhibition at 100 µM: 0%

Oc1ccc(C2CNCCc3c2cc(O)c(O)c3Cl)cc1 (stereo not drawn) [Fenoldopam mesylate]
inhibition at 100 µM: 0%

NC(=O)[C@@H]1CC[C@@H]2CN1C(=O)N2OS(=O)(=O)O [Avibactam sodium]
inhibition at 100 µM: 0%

CC(C)c1cc(C(=O)N2Cc3ccc(CN4CCN(C)CC4)cc3C2)c(O)cc1O [Onalespib (AT13387)]
inhibition at 100 µM: 5.85%

CCCCCCCC(=O)N[C@H](CN1CCCC1)[C@H](O)c1ccc2c(c1)OCCO2 [Eliglustat]
inhibition at 100 µM: 2.49%

O=C(Nc1nc2cccc(-c3ccc(CN4CCS(=O)(=O)CC4)cc3)n2n1)C1CC1 [Filgotinib (GLPG0634)]
inhibition at 100 µM: 17%

Cc1oncc1C(=O)Nc1ccc(C(F)(F)F)cc1 [Leflunomide]
inhibition at 100 µM: 22.5%

CCCCc1oc2ccc(NS(C)(=O)=O)cc2c1C(=O)c1ccc(OCCCN(CCCC)CCCC)cc1 [Dronedarone HCl]
inhibition at 100 µM: 0%

c1cn2cc(-c3ccc4cn[nH]c4c3)nc(Nc3ccc(N4CCOCC4)cc3)c2n1 [Entospletinib (GS-9973)]
inhibition at 100 µM: 29.5%

C[C@@H]1COC(Nc2ccc3ncnc(Nc4ccc(OCc5nccs5)c(Cl)c4)c3c2)=N1 [Varlitinib]
inhibition at 100 µM: 0%

COC(=O)C1=CCCN(C)C1 [Arecoline HBr]
inhibition at 100 µM: 3.01%

Cc1cccc(C)c1OCC(=O)N[C@@H](Cc1ccccc1)[C@@H](O)C[C@H](Cc1ccccc1)NC(=O)[C@H](C(C)C)N1CCCNC1=O [Lopinavir]
inhibition at 100 µM: 0%

O=C(O)c1cc(/N=N/c2ccc(S(=O)(=O)Nc3ccccn3)cc2)ccc1O [Sulfasalazine]
inhibition at 100 µM: 0%

COC(=O)N[C@@H](C)CNc1nccc(-c2cn(C(C)C)nc2-c2cc(Cl)cc(NS(C)(=O)=O)c2F)n1 [Encorafenib (LGX818)]
inhibition at 100 µM: 10.8%

NC(=O)c1cn(Cc2c(F)cccc2F)nn1 [Rufinamide]
inhibition at 100 µM: 25.2%

CCOC(=O)C1=C(C)NC(C)=C(C(=O)OCC)C1c1ccccc1/C=C/C(=O)OC(C)(C)C [Lacidipine]
inhibition at 100 µM: 3.07%

CC(=O)OCC(=O)[C@H]1CC[C@H]2[C@@H]3CCC4=CC(=O)CC[C@]4(C)[C@H]3CC[C@]12C [Deoxycorticosterone acetate]
inhibition at 100 µM: 3.46%

CC(C)=CCC/C(C)=C/CC/C(C)=C/CSc1ccccc1C(=O)O [Salirasib]
inhibition at 100 µM: 0%

CC1=Nc2ccc(Cl)cc2S(=O)(=O)N1 [Diazoxide]
inhibition at 100 µM: 0%

CC(C)NCC(O)c1cc(O)cc(O)c1 (stereo not drawn) [Metaproterenol Sulfate]
inhibition at 100 µM: 2.56%

CN(C)c1ccc(O)c2c1C[C@H]1C[C@H]3[C@H](N(C)C)C(O)=C(C(N)=O)C(=O)[C@@]3(O)C(O)=C1C2=O [Minocycline HCl]
inhibition at 100 µM: 0%

NC[C@H]1O[C@H](O[C@H]2[C@H](O)[C@@H](O[C@H]3O[C@H](CO)[C@@H](O)[C@H](N)[C@H]3O)[C@H](N)C[C@@H]2N)[C@H](O)[C@@H](O)[C@@H]1O [Kanamycin sulfate]
inhibition at 100 µM: 4.88%

CC(C)N(CCC(C(N)=O)(c1ccccc1)c1ccccn1)C(C)C (stereo not drawn) [Disopyramide Phosphate]
%inhibition: 0%

CCc1cc(/C(C)=N/OCc2ccc(C3CCCCC3)c(C(F)(F)F)c2)ccc1CN1CC(C(=O)O)C1 [BAF312 (Siponimod)]
inhibition at 100 µM: 26.1%

Nc1ncnc2c1ncn2[C@@H]1O[C@H](CO)[C@@H](O)[C@@H]1O [Vidarabine monohydrate]
inhibition at 100 µM: 9.49%

N#C/C(=C1/SC[C@@H](c2ccc(Cl)cc2Cl)S1)n1ccnc1 [Luliconazole]
inhibition at 100 µM: 24.1%

C[C@H]1O[C@H](O[C@H]2[C@H](O)[C@@H](O)[C@@H](O[C@H]3[C@H](O)[C@@H](O)C(O)O[C@@H]3CO)O[C@@H]2CO)[C@H](O)[C@@H](O)[C@@H]1N[C@H]1C=C(CO)[C@@H](O)[C@H](O)[C@H]1O (stereo partly drawn) [Acarbose]
inhibition at 100 µM: 16%

O=C(O)Cc1ccccc1Nc1c(Cl)cccc1Cl [Diclofenac Diethylamine]
%inhibition: 0%

O=C1CN2Cc3c(ccc(Cl)c3Cl)N=C2N1 [Anagrelide HCl]
inhibition at 100 µM: 0%

CCCCC[C@H](O)/C=C/[C@@H]1[C@@H](C/C=C\CCCC(=O)O)[C@@H](O)C[C@H]1O [Dinoprost tromethamine]
inhibition at 100 µM: 32.6%

CC(=O)O[C@H]1C[C@@]2(C)[C@@H](C[C@@H](O)[C@H]3[C@@]4(C)CC[C@@H](O)[C@@H](C)[C@@H]4CC[C@@]32C)/C1=C(\CCC=C(C)C)C(=O)O [Fusidate Sodium]
inhibition at 100 µM: 3.17%

COC(=O)N/N=C/c1c[n+]([O-])c2ccccc2[n+]1[O-] [Carbadox]
inhibition at 100 µM: 6.86%

Cc1ccc(-c2ncc(Cl)cc2-c2ccc(S(C)(=O)=O)cc2)cn1 [Etoricoxib]
inhibition at 100 µM: 0%

COc1c2occc2cc2ccc(=O)oc12 [Methoxsalen]
inhibition at 100 µM: 14.7%

CC(C(=O)O)c1cccc(Oc2ccccc2)c1 (stereo not drawn) [Fenoprofen Calcium]
%inhibition: 9.442%

Cc1cc(C#N)cc(C)c1Oc1nc(Nc2ccc(C#N)cc2)nc(N)c1Br [Etravirine (TMC125)]
inhibition at 100 µM: 5.29%

COc1cc(O)c(C(=O)c2ccccc2)cc1S(=O)(=O)O [Sulisobenzone]
inhibition at 100 µM: 4.13%

C[C@@H](O)[C@H]1C(=O)N2C(C(=O)O)=C(S[C@@H]3CN[C@H](CNS(N)(=O)=O)C3)[C@H](C)[C@H]12 [Doripenem Hydrate]
%inhibition: 0%

CCN1CCN(Cc2ccc(Nc3ncc(F)c(-c4cc(F)c5nc(C)n(C(C)C)c5c4)n3)nc2)CC1 [abemaciclib (LY2835219)]
%inhibition: 4.001%

CN1CCN2c3ncccc3Cc3ccccc3C2C1 (stereo not drawn) [Mirtazapine]
inhibition at 100 µM: 7.99%

COc1cc([C@H]2Oc3cc([C@H]4Oc5cc(O)cc(O)c5C(=O)[C@@H]4O)ccc3O[C@@H]2CO)ccc1O [Silibinin]
inhibition at 100 µM: 0%

COc1cc([C@@H]2c3cc4c(cc3[C@@H](O[C@@H]3O[C@@H]5CO[C@@H](c6cccs6)O[C@H]5[C@H](O)[C@H]3O)[C@H]3COC(=O)[C@H]23)OCO4)cc(OC)c1O [Teniposide]
inhibition at 100 µM: 12.8%

CN(C)CCOc1ccc(/C(=C(/CCCl)c2ccccc2)c2ccccc2)cc1 [Toremifene Citrate]
inhibition at 100 µM: 21.7%

O=c1oc2cc(O)ccc2s1 [Tioxolone]
inhibition at 100 µM: 23.8%

Cc1ccc(C(=O)c2ccc(CC(=O)O)n2C)cc1 [Tolmetin]
%inhibition: 4.72%

O=C1c2cccc3c2[C@H](CCC3)CN1[C@@H]1CN2CCC1CC2 [Palonosetron HCl]
inhibition at 100 µM: 0%

CO/N=C(\C(=O)N[C@@H]1C(=O)N2C(C(=O)OCOC(=O)C(C)(C)C)=C(/C=C\c3scnc3C)CS[C@H]12)c1csc(N)n1 [Cefditoren Pivoxil]
inhibition at 100 µM: 0%

O=C1/C(=C2\Nc3ccccc3C2=O)Nc2ccccc21 [Indigo]
inhibition at 100 µM: 9.76%

COC(=O)c1ccc2c(C(=Nc3ccc(N(C)C(=O)CN4CCN(C)CC4)cc3)c3ccccc3)c(O)[nH]c2c1 [Nintedanib Ethanesulfonate Salt]
%inhibition: 8.812%

CCn1cc(C(=O)O)c(=O)c2ccc(C)nc21 [Nalidixic acid]
inhibition at 100 µM: 0%

COc1ccc(CN(C(=O)[C@@H](N)Cc2c(C)cc(C(N)=O)cc2C)[C@@H](C)c2ncc(-c3ccccc3)[nH]2)cc1C(=O)O [Eluxadoline]
inhibition at 100 µM: 5.52%

CC(C)CN(C[C@@H](O)[C@H](Cc1ccccc1)NC(=O)O[C@H]1CCOC1)S(=O)(=O)c1ccc(N)cc1 [Amprenavir]
inhibition at 100 µM: 0%

CC(C)Nc1cc(-c2c[nH]c(C(=O)N[C@H](CO)c3cccc(Cl)c3)c2)c(Cl)cn1 [Ulixertinib (BVD-523, VRT752271)]
inhibition at 100 µM: 24.8%

CC(C)COc1ccc(CNC(=O)N(Cc2ccc(F)cc2)C2CCN(C)CC2)cc1 [Pimavanserin]
inhibition at 100 µM: 1.16%
